According to ChEMBL document CHEMBL1130695, “Biologically selective potassium channel openers having 1,1-diethylpropyl group” (1998):

How the values were obtained:
[1] = species: Cavia porcellus; experiment: Compound was tested for relaxant activity in urinary bladder for urinary incontinence in male guinea pigs; type: functional
[2] = species: Cavia porcellus; experiment: Compound was tested for relaxant activity in trachea for asthma in male guinea pigs; type: functional
[3] = species: Cavia porcellus; experiment: Compound was tested for relaxant activity in taenia caecum; type: functional; conditions: read-out: ED50 (the source's name)
[4] = system: Canis familiaris; experiment: Compound was tested for the antihypertensive activity in dogs by intravenous injection at a dose of 30 ug/kg; type: functional, Canis lupus familiaris
[5] = species: Cavia porcellus; experiment: Compound was tested for relaxant activity in urinary bladder for urinary incontinence in male guinea pigs at 1 uM concentration; type: functional; set-up: scale not given: the % may be the effect or the level left

| EC50 [3] | SMILES | ED50 [1] | ED50 [2] | AHA [4] | Activity [5] |
| --- | --- | --- | --- | --- | --- |
| 0.032 µM | CCC(C)(C)/N=C(\NC#N)Nc1cc(Br)cc(C#N)c1 | 0.011 µM | 0.08 µM | – | – |
| 0.47 µM | CC1(C)Oc2ccc(C#N)cc2[C@@H](N2CCCC2=O)[C@@H]1O [CROMAKALIM] | 0.042 µM | 1.2 µM | -37.8 delta mmHg | – |
| 0.094 µM | CCC(CC)(CC)/N=C(\NC#N)Nc1cc(Cl)cc(C#N)c1 | >1 µM | 5.6 µM | -18.9 delta mmHg | 22% |
| 0.1 µM | CCC(C)(CC)/N=C(\NC#N)Nc1cc(Cl)cc(C#N)c1 | 0.016 µM | 0.19 µM | -25.2 delta mmHg | – |
| 0.17 µM | CC(C)C(C)(C)/N=C(\NC#N)Nc1cc(Cl)cc(C#N)c1 | 0.19 µM | 0.69 µM | -20.3 delta mmHg | – |
| 0.075 µM | CCC(C)(C)/N=C(\NC#N)Nc1cc(Cl)cc(C#N)c1 | 0.02 µM | 0.28 µM | -29.8 delta mmHg | – |

Continued, compound first:

| SMILES | EC50 [3] | ED50 [1] | ED50 [2] | AHA [4] | Activity [5] |
| --- | --- | --- | --- | --- | --- |
| CC(N/C(=N\C#N)Nc1ccncc1)C(C)(C)C (stereo unspecified) [PINACIDIL ANHYDROUS] | – | 0.31 µM | 2.3 µM | – | – |
| CCC(C)(CC)/N=C(\NC#N)Nc1cc(Cl)cc(Cl)c1 | – | 0.013 µM | 0.44 µM | – | – |
| CCC(C)(C)/N=C(\NC#N)Nc1cc(F)cc(Cl)c1 | – | 0.032 µM | 0.26 µM | – | – |
| CCC(CC)(CC)/N=C(\NC#N)Nc1cc(Cl)cc(Cl)c1 | – | >1 µM | 30 µM | -15.9 delta mmHg | <5% |
| CCC(C)(C)/N=C(\NC#N)Nc1cc(F)cc(Br)c1 | – | 0.016 µM | 0.18 µM | – | – |
